According to patent US11248013B2, “Tricyclic inhibitors of poly(ADP-ribose)polymerase” (Rakovina Therapeutics Inc., priority 2011, dated 2022):

target: PARP-1 (Homo sapiens (Human), UniProt P09874); assay: PARP-1 Enzyme Assay (HT Universal Colorimetric PARP Assay Kit); format: biochemical; settings: OD450, read-out: IC50 (PARP-1 inhibition)
Method: Inhibition of PARP-1 enzymatic activities was measured using an HT Universal Colorimetric PARP Assay Kit (Trevigen, catalogue #4677-096-K) following the standard procedures.
Serial dilutions of PARP compounds were added to appropriate wells. The compound was incubated with PARP enzyme at RT for 10 min, and the reaction was initiated by addition of the PARP substrate cocktail, Each concentration of compound was tested in triplicate wells. After 15 min reaction, the reaction was stopped, and the Strep-HRP was added into each well and incubated for 1 h at RT. After addition of TACS-Sapphire™ colorimetric substrate and incubated in dark for 15 min, the OD450 was read out with an EnVision instrument. IC50 values (the concentration at which 50% of the enzyme activity is inhibited) were calculated, which are determined over a range of different concentrations, normally from 10 μM to 0.1 nM.

PARP-1, sequence (P09874 whole entry): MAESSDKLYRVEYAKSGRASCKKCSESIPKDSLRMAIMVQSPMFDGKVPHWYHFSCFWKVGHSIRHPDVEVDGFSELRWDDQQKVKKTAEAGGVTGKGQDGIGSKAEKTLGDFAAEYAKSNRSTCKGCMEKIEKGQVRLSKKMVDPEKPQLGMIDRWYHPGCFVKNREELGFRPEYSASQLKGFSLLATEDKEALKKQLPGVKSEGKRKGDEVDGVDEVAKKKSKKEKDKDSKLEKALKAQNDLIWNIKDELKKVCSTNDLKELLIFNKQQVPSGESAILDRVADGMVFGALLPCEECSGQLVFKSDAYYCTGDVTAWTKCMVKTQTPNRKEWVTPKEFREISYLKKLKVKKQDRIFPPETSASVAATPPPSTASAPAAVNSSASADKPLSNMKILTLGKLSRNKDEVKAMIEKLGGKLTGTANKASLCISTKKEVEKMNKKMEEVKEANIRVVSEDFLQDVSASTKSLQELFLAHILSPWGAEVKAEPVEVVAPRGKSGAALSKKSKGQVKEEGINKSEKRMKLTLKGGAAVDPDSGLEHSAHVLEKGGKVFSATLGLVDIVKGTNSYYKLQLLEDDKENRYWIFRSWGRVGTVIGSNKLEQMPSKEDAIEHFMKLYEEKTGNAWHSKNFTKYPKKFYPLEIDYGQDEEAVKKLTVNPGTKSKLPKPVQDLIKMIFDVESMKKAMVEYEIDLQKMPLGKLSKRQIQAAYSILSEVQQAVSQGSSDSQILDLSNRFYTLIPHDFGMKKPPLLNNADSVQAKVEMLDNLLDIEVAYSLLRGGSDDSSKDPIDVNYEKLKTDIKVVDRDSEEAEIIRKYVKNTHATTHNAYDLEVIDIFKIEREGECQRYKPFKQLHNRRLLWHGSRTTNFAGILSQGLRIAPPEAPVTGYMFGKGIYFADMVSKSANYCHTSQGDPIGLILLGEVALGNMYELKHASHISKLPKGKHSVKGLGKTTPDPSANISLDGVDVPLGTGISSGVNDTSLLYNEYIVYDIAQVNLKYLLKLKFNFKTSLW

Molecule	IC50 [µM]
4-(4-fluoro-3-(4-oxido-1-(tetrahydrofuran-2-carbonyl)-1,4-azaphosphinan-4-yl)benzyl)phthalazin-1(2H)-one [Example 7]	0.1 to 1
4-(3-(1-(cyclopropanecarbonyl)-4-oxido-1,4-azaphosphinan-4-yl)-4-fluorobenzyl)phthalazin-1(2H)-one [Example 3]	< 0.1
4-(3-(1-(3,3-difluoropyrrolidine-1-carbonyl)-4-oxido-1,4-azaphosphinan-4-yl)-4-fluorobenzyl)phthalazin-1(2H)-one [Example 6]	< 0.1
CC(C)(C)CN1CCP(=O)(c2cc(Cc3n[nH]c(=O)c4ccccc34)ccc2F)CC1 [Example 47, 4-(4-fluoro-3-(1-neopentyl-4-oxido-1,4-azaphosphinan-4-yl)benzyl)phthalazin-1(2H)-one]	0.1 to 1
O=c1[nH]nc(Cc2ccc(F)c(P3(=O)CCN(Cc4ccccc4)CC3)c2)c2ccccc12 [Example 1, 4-(3-(1-benzyl-4-oxido-1,4-azaphosphinan-4-yl)-4-fluorobenzyl)phthalazin-1(2H)-one]	< 0.1
O=c1[nH]nc(Cc2ccc(F)c(P3(=O)CCN(c4cccc(C(F)(F)F)n4)CC3)c2)c2ccccc12 [Example 31, 4-(4-fluoro-3-(4-oxido-1-(6-(trifluoromethyl)pyridin-2-yl)-1,4-azaphosphinan-4-yl)benzyl)phthalazin-1(2H)-one]	0.1 to 1
O=C(C1CCCC1)N1CCP(=O)(c2cc(Cc3n[nH]c(=O)c4ccccc34)ccc2F)CC1 [Example 2, 4-(3-(1-(cyclopentanecarbonyl)-4-oxido-1,4-azaphosphinan-4-yl)-4-fluorobenzyl)phthalazin-1 (2H)-one]	1 to 10
O=c1[nH]nc(Cc2ccc(F)c(P3(=O)CCN(c4cccc(F)n4)CC3)c2)c2ccccc12 [Example 25, 4-(4-fluoro-3-(1-(6-fluoropyridin-2-yl)-4-oxido-1,4-azaphosphinan-4-yl)benzyl)phthalazin-1(2H)-one]	< 0.1
4-(3-(1-(3-chloro-5-(trifluoromethyl)pyridin-2-yl)-4-oxido-1,4-azapbosphinan-4-yl)-4-fluorobenzyl)phthalazin-1(2H)-one [Example 20]	0.1 to 1
CCN1CCP(=O)(c2cc(Cc3n[nH]c(=O)c4ccccc34)ccc2F)CC1 [Example 41, 4-(3-(1-ethyl-4-oxido-1,4-azaphosphinan-4-yl)-4-fluorobenzyl)phthalazin-1(2H)-one]	< 0.1
O=c1[nH]nc(Cc2ccc(F)c(P3(=O)CCN(CC4CC4)CC3)c2)c2ccccc12 [Example 43, 4-(3-(1-(cyclopropylmethyl)-4-oxido-1,4-azaphosphinan-4-yl)-4-fluorobenzyl)phthalazin-1(2H)-one]	< 0.1

Second part, the molecule after the results:

IC50 [µM]	Molecule
< 0.1	CC(C)CCN1CCP(=O)(c2cc(Cc3n[nH]c(=O)c4ccccc34)ccc2F)CC1 [Example 48]
< 0.1	O=c1[nH]nc(Cc2ccc(F)c(P3(=O)CCN(c4ncc(Cl)cn4)CC3)c2)c2ccccc12 [Example 36, 4-(4-fluoro-3-(4-oxido-1-(5-(chloro)pyrimidin-2-yl)-1,4-azaphosphinan-4-yl)benzyl)phthalazin-1(2H)-one]
< 0.1	N#Cc1cccnc1N1CCP(=O)(c2cc(Cc3n[nH]c(=O)c4ccccc34)ccc2F)CC1 [Example 16, 2-(4-(2-fluoro-5-((4-oxo-3,4-dihydrophthalazin-1-yl)methyl)phenyl)-4-oxido-1,4-azaphosphinan-1-yl)nicotinonitrile]
< 0.1	O=c1[nH]nc(Cc2ccc(F)c(P3(=O)CCN(c4ccc(Cl)nn4)CC3)c2)c2ccccc12 [Example 13, 4-(3-(1-(6-chloropyridazin-3-yl)-4-oxido-1,4-azaphosphinan-4-yl)-4-fluorobenzyl)phthalazin-1(2H)-one]
< 0.1	O=c1[nH]nc(Cc2ccc(F)c(P3(=O)CCN(c4ncnc5ccccc45)CC3)c2)c2ccccc12 [Example 21, 4-(4-fluoro-3-(4-oxido-1-(quinazolin-4-yl)-1,4-azaphosphinan-4-yl)benzyl)phthalazin-1(2H)-one]
< 0.1	O=c1[nH]nc(Cc2ccc(F)c(P3(=O)CCN(c4cc(C(F)(F)F)ccn4)CC3)c2)c2ccccc12 [Example 26, 4-(4-fluoro-3-(4-oxido-1-(4-(trifluoromethyl)pyridin-2-yl)-1,4-azaphosphinan-4-yl)benzyl)phthalazin-1(2H)-one]
< 0.1	O=c1[nH]nc(Cc2ccc(F)c(P3(=O)CCN(c4ncccn4)CC3)c2)c2ccc(F)cc12 [Example 56, 4-(4-fluoro-3-(4-oxido-1-(pyrimidin-2-yl)-1,4-azaphosphinan-4-yl)benzyl)-7-fluorophthalazin-1(2H)-one]
< 0.1	O=c1[nH]nc(Cc2ccc(F)c(P3(=O)CCN(c4ncccc4F)CC3)c2)c2ccccc12 [Example 23, 4-(4-fluoro-3-(1-(3-fluoropyridin-2-yl)-4-oxido-1,4-azaphosphinan-4-yl)benzyl)phthalazin-1(2H)-one]
< 0.1	O=c1[nH]nc(Cc2ccc(F)c(P3(=O)CCN(c4cc(Cl)ncn4)CC3)c2)c2ccccc12 [Example 22, 4-(3-(1-(6-chloropyrimidin-4-yl)-4-oxido-1,4-azaphosphinan-4-yl)-4-fluorobenzyl)phthalazin-1(2H)-one]
< 0.1	[2H]C([2H])(c1ccc(F)c(P2(=O)CCN(C3CC3)CC2)c1)c1n[nH]c(=O)c2cc(F)ccc12 [Example 55, 4-[(3-(1-cyclopropyl-4-oxido-1,4-azaphosphinan-4-yl)-4-fluorophenyl)dideuteromethyl]-7-fluorophthalazin-1 (2H)-one]
< 0.1	O=c1[nH]nc(Cc2ccc(F)c(P3(=O)CCN(c4ccccn4)CC3)c2)c2ccccc12 [Example 19, 4-(4-fluoro-3-(4-oxido-1-(pyridin-2-yl)-1,4-azaphosphinan-4-yl)benzyl)phthalazin-1(2H)-one]

target: intracellular PARP enzyme (Homo sapiens, UniProt P09874); assay: PARP Cell Assay (IHC, intracellular poly(ADP)-ribose formation in C41 cells); format: cell-based; settings: C41 cells (Human cervical carcinoma), 2 h compound, 1.0 mM H2O2 for 10 min; read-out: EC50 (TARP cell assay)
Sequence (P09874 2-1014 limits assumed): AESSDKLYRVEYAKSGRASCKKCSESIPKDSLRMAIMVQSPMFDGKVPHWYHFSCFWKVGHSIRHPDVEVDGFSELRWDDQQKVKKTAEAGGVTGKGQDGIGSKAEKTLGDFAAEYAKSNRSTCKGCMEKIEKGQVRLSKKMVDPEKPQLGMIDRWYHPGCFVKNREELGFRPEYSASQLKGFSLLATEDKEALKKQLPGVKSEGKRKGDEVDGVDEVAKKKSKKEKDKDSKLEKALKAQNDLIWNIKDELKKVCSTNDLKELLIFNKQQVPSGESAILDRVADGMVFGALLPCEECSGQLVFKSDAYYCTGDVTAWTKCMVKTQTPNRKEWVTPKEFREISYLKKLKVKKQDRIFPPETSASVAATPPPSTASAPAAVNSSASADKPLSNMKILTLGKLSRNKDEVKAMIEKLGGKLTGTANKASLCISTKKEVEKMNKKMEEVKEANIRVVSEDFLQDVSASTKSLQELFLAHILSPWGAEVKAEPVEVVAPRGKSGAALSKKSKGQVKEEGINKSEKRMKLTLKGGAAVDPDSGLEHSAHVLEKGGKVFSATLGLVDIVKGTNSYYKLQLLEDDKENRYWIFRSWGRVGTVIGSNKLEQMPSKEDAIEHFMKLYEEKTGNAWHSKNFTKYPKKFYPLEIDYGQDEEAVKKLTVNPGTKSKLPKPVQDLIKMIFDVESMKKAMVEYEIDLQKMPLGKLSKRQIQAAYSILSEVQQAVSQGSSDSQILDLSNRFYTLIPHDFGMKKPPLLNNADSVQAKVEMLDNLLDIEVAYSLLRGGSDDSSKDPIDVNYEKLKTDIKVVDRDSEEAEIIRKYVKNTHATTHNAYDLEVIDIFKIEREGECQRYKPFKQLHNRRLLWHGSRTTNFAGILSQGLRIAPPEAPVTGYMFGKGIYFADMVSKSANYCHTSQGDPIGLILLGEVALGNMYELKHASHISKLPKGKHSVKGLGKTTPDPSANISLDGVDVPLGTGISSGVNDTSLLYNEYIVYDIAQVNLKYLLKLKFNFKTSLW
Method: Inhibition of intracellular PARP enzyme was determined using an immunohistochemistry (IHC) assay. The cellular assay measures the formation of poly (ADP)-ribose catalyzed by PARP inside cells.
Anti-PAR (Ab-1) Mouse mAb (10H) (Calbiochem, AM-80); Anti-Mouse IgG (whole molecule)-FITC antibody produced in goat (sigma, F2012); DAPI (sigma, D9542).
The C41 cells (Human cervical carcinoma; ATCC No. CRL-1594) were planted into 96-well plates at 8.0E4 cells/well and incubated at 37° C. overnight. Cells were washed with 37° C. warmed PBS once and treated with test compounds for 2 h in 96-well plates. Cells were washed with 37° C. warmed PBS once, and PARP was activated by damaging DNA with 1.0 mM H2O2 for 10 min. Cells were washed with ice-cold PBS once and fixed with pre-chilled methanol/acetone (7:3) at −20° C. for 10 min. After air-drying, plates were rehydrated with PBS and blocked using 5% nonfat dry milk in PBS-Tween (0.05%) (block solution) for 30 min at room temperature. […] After washing with PBS-Tween20.5 times, analysis was performed using Vector 3 Microplate Reader (PerkinElmer) set at the excitation (485 nm) and emission (535 nm) wavelength for FITC or the excitation (364 nm) and emission (454 nm) wavelength for DAPI. […]

EC50 [µM]	Molecule
0.1 to 1	CC(C)CCN1CCP(=O)(c2cc(Cc3n[nH]c(=O)c4ccccc34)ccc2F)CC1 [Example 48]
